Measured values published in ChEMBL document CHEMBL5331046, “Disulfiram and dithiocarbamate analogues demonstrate promising antischistosomal effects” (Eur J Med Chem, 2022).
Calls of active or inactive are those of the source. The calls are words filed in the database; no cut-off is given here.

Columns and labels:
Schistosoma mansoni [1] = experiment: Antischistosomal activity against Schistosoma mansoni couples assessed as tissue structural changes at 25 uM measured upto 72 hrs by bright field microscopy; assay type: functional, organism-based
Schistosoma mansoni [2] = experiment: Antischistosomal activity against Schistosoma mansoni couples assessed as gut dilations at 25 uM measured upto 72 hrs by bright field microscopy; assay type: functional, organism-based
LS174T [3] = experiment: Cytotoxicity against human LS174T cells assessed as reduction in cell viability at 100 uM by WST-1 assay; assay type: toxicity, cell-based
Schistosoma mansoni [4] = experiment: Antischistosomal activity against Schistosoma mansoni couples assessed as decrease in parasite vitality at 25 uM measured upto 72 hrs by bright field microscopy; assay type: functional, organism-based
Schistosoma mansoni [5] = experiment: Antischistosomal activity against Schistosoma mansoni couples assessed as decrease in parasite motility at 25 uM measured upto 72 hrs by bright field microscopy; assay type: functional; parameters: scale not given: the % may be the effect or the level left
Schistosoma mansoni [6] = experiment: Antischistosomal activity against Schistosoma mansoni couples assessed as couple separation at 25 uM measured upto 72 hrs by bright field microscopy; assay type: functional, organism-based
HepG2 [7] = experiment: Cytotoxicity against human HepG2 cells assessed as reduction in cell vaibility at 100 uM by WST-1 assay; assay type: toxicity, cell-based; conditions: hepg2, 100 µM
Schistosoma mansoni [8] = experiment: Antischistosomal activity against Schistosoma mansoni couples assessed as inhibition of eggs production at 25 uM measured upto 72 hrs by bright field microscopy; assay type: functional
Schistosoma mansoni [9] = experiment: Antischistosomal activity against Schistosoma mansoni couples at 100 uM measured upto 72 hrs by bright field microscopy; assay type: functional, organism-based
Schistosoma mansoni [10] = experiment: Antischistosomal activity against Schistosoma mansoni couples assessed as tegument damage at <=50 uM measured upto 72 hrs by bright field microscopy; assay type: functional, organism-based
Schistosoma mansoni [11] = experiment: Antischistosomal activity against Schistosoma mansoni couples assessed as reduction in parasite motility at <=50 uM measured upto 72 hrs by bright field microscopy; assay type: functional, organism-based
Schistosoma mansoni [12] = experiment: Antischistosomal activity against Schistosoma mansoni couples assessed as reduction in pairing stability at 100 uM measured upto 72 hrs by bright field microscopy; assay type: functional
Schistosoma mansoni [13] = experiment: Antischistosomal activity against Schistosoma mansoni couples assessed as eggs deformation at 100 uM measured upto 72 hrs by bright field microscopy; assay type: functional
Schistosoma mansoni [14] = experiment: Antischistosomal activity against Schistosoma mansoni couples assessed as decrease in parasite motility at 100 uM measured upto 72 hrs by bright field microscopy; assay type: functional; parameters: scale not given: the % may be the effect or the level left
Schistosoma mansoni [15] = experiment: Antischistosomal activity against Schistosoma mansoni couples assessed as tegument damage at 100 uM measured upto 72 hrs by bright field microscopy; assay type: functional, organism-based
Schistosoma mansoni [16] = experiment: Antischistosomal activity against Schistosoma mansoni couples assessed as tegument damage at 10 uM measured upto 72 hrs by bright field microscopy; assay type: functional, organism-based
Schistosoma mansoni [17] = experiment: Antischistosomal activity against Schistosoma mansoni couples assessed as reduction in parasite motility at <=10 uM measured upto 72 hrs by bright field microscopy; assay type: functional; parameters: scale not given: the % may be the effect or the level left; conditions: up to 10 µM
Schistosoma mansoni [18] = experiment: Antischistosomal activity against Schistosoma mansoni couples assessed as decrease in parasite motility at 10 uM measured upto 72 hrs by bright field microscopy; assay type: functional, organism-based
Schistosoma mansoni [19] = experiment: Antischistosomal activity against Schistosoma mansoni couples assessed as loss of internal structures at 10 uM measured upto 72 hrs by bright field microscopy; assay type: functional, organism-based
Schistosoma mansoni [20] = experiment: Antischistosomal activity against Schistosoma mansoni couples assessed as tegument damage at <=10 uM measured upto 72 hrs by bright field microscopy; assay type: functional, organism-based
Schistosoma mansoni [21] = experiment: Antischistosomal activity against Schistosoma mansoni couples assessed as loss of internal structures at <=10 uM measured upto 72 hrs by bright field microscopy; assay type: functional, organism-based
Schistosoma mansoni [22] = experiment: Antischistosomal activity against Schistosoma mansoni couples assessed as inhibition of eggs production at 15 uM measured upto 72 hrs by bright field microscopy; assay type: functional; parameters: scale not given: the % may be the effect or the level left
Schistosoma mansoni [23] = experiment: Antischistosomal activity against Schistosoma mansoni couples assessed as decrease in parasite vitality at 15 uM measured upto 72 hrs by bright field microscopy; assay type: functional; parameters: scale not given: the % may be the effect or the level left
Schistosoma mansoni [24] = experiment: Antischistosomal activity against Schistosoma mansoni couples assessed as gut dilatations at <=10 uM measured upto 72 hrs by bright field microscopy; assay type: functional, organism-based
Schistosoma mansoni [25] = experiment: Antischistosomal activity against Schistosoma mansoni couples assessed as decrease in pairing stability at 15 uM measured upto 72 hrs by bright field microscopy; assay type: functional; parameters: scale not given: the % may be the effect or the level left
Schistosoma mansoni [26] = experiment: Antischistosomal activity against Schistosoma mansoni couples assessed as gut dilatations at 10 uM measured upto 72 hrs by bright field microscopy; assay type: functional, organism-based
Schistosoma mansoni [27] = experiment: Antischistosomal activity against Schistosoma mansoni couples assessed as decrease in parasite motility at 15 uM measured upto 72 hrs by bright field microscopy; assay type: functional; parameters: scale not given: the % may be the effect or the level left
Schistosoma mansoni [28] = experiment: Antischistosomal activity against Schistosoma mansoni couples assessed as induction of phenotypes at 10 uM measured upto 72 hrs by bright field microscopy; assay type: functional, organism-based
Schistosoma mansoni [29] = experiment: Antischistosomal activity against Schistosoma mansoni couples assessed as reduction in pairing stability at 25 uM measured upto 72 hrs by bright field microscopy; assay type: functional; parameters: scale not given: the % may be the effect or the level left
Schistosoma mansoni [30] = experiment: Antischistosomal activity against Schistosoma mansoni couples assessed as decrease in parasite motility at 50 uM measured upto 72 hrs by bright field microscopy; assay type: functional; parameters: scale not given: the % may be the effect or the level left
Schistosoma mansoni [31] = experiment: Antischistosomal activity against Schistosoma mansoni couples assessed as inhibition of eggs production at <25 uM measured upto 72 hrs by bright field microscopy; assay type: functional, organism-based
Schistosoma mansoni [32] = experiment: Antischistosomal activity against Schistosoma mansoni couples assessed as decrease in mating stability <25 uM measured upto 72 hrs by bright field microscopy; assay type: functional, organism-based
Schistosoma mansoni [33] = experiment: Antischistosomal activity against Schistosoma mansoni couples assessed as decrease in parasite motility at <25 uM measured upto 72 hrs by bright field microscopy; assay type: functional, organism-based
Schistosoma mansoni [34] = experiment: Antischistosomal activity against Schistosoma mansoni couples assessed as lethality to parasites at 100 uM measured upto 72 hrs by bright field microscopy; assay type: functional, organism-based
Schistosoma mansoni [35] = experiment: Antischistosomal activity against Schistosoma mansoni couples assessed as inhibition of eggs production at 5 uM measured upto 72 hrs by bright field microscopy; assay type: functional; parameters: scale not given: the % may be the effect or the level left
Schistosoma mansoni [36] = experiment: Antischistosomal activity against Schistosoma mansoni couples assessed as inhibition of eggs production at 10 uM measured upto 72 hrs by bright field microscopy; assay type: functional, organism-based
Schistosoma mansoni [37] = experiment: Antischistosomal activity against Schistosoma mansoni couples assessed as reduction in pairing stability at 10 uM measured upto 72 hrs by bright field microscopy; assay type: functional, organism-based
Schistosoma mansoni [38] = experiment: Antischistosomal activity against Schistosoma mansoni couples assessed as decrease in parasite vitality at 10 uM measured upto 72 hrs by bright field microscopy; assay type: functional
LS174T [39] = experiment: Cytotoxicity against human LS174T cells assessed as reduction in cell vaibility at 25 uM by WST-1 assay; assay type: toxicity, cell-based
Schistosoma mansoni [40] = experiment: Antischistosomal activity against Schistosoma mansoni couples assessed as dead worms at 25 uM measured upto 72 hrs by bright field microscopy; assay type: functional
Schistosoma mansoni [41] = experiment: Antischistosomal activity against Schistosoma mansoni couples assessed as edematous swelling of gut at 25 uM measured upto 72 hrs by bright field microscopy; assay type: functional, organism-based
HepG2 [42] = experiment: Cytotoxicity against human HepG2 cells assessed as reduction in cell vaibility at 25 uM by WST-1 assay; assay type: toxicity, cell-based; conditions: hepg2, 25 µM
Schistosoma mansoni [43] = experiment: Antischistosomal activity against Schistosoma mansoni couples assessed as decrease in pairing stability at 5 uM measured upto 72 hrs by bright field microscopy; assay type: functional; parameters: scale not given: the % may be the effect or the level left
Schistosoma mansoni [44] = experiment: Antischistosomal activity against Schistosoma mansoni female worm assessed as tegument damage at 100 uM measured upto 72 hrs by bright field microscopy; assay type: functional, organism-based
Schistosoma mansoni [45] = experiment: Antischistosomal activity against Schistosoma mansoni female worm assessed as gut dilatations at 10 uM measured upto 72 hrs by bright field microscopy; assay type: functional, organism-based
Schistosoma mansoni [46] = experiment: Antischistosomal activity against Schistosoma mansoni couples assessed as couple separation at 100 uM measured upto 72 hrs by bright field microscopy; assay type: functional, organism-based
Schistosoma mansoni [47] = experiment: Antischistosomal activity against Schistosoma mansoni couples assessed as inhibition of eggs production at <=25 uM measured upto 72 hrs by bright field microscopy; assay type: functional, organism-based
Schistosoma mansoni [48] = experiment: Antischistosomal activity against Schistosoma mansoni couples assessed as decrease in parasite vitality at <=25 uM measured upto 72 hrs by bright field microscopy; assay type: functional, organism-based
Schistosoma mansoni [49] = experiment: Antischistosomal activity against Schistosoma mansoni couples assessed as lethality to parasites at 50 uM measured upto 72 hrs by bright field microscopy; assay type: functional, organism-based
Schistosoma mansoni [50] = experiment: Antischistosomal activity against Schistosoma mansoni male worm assessed as tegument damage at 100 uM measured upto 72 hrs by bright field microscopy; assay type: functional, organism-based
Schistosoma mansoni [51] = experiment: Antischistosomal activity against Schistosoma mansoni female worm assessed as gut dilatations at 100 uM measured upto 72 hrs by bright field microscopy; assay type: functional, organism-based

SMILES: CN(C)CCN1CCN(C(=S)SCc2ccc([N+](=O)[O-])cc2)CC1
- Activity (Schistosoma mansoni [1]): Active
- Activity (Schistosoma mansoni [2]): Active
- Activity (LS174T [3]): Toxic
- Activity (Schistosoma mansoni [4]): Active
- Activity (Schistosoma mansoni [5]): 55%
- Activity (Schistosoma mansoni [6]): Active
- Activity (HepG2 [7]): Toxic
- Activity (Schistosoma mansoni [8]): Active
- Activity (Schistosoma mansoni [9]): Active

SMILES: CCCN(CCC)C(=S)SCc1ccccc1
- Activity (Schistosoma mansoni [10]): inactive
- Activity (Schistosoma mansoni [11]): inactive
- Activity (Schistosoma mansoni [12]): Active
- Activity (Schistosoma mansoni [13]): Active
- Activity (Schistosoma mansoni [14]): ~40%
- Activity (Schistosoma mansoni [15]): Active

SMILES: O=[N+]([O-])c1ccc(CSC(=S)N2CCN(S(=O)(=O)c3ccccc3)CC2)cc1
- Activity (Schistosoma mansoni [16]): Active
- Activity (Schistosoma mansoni [17]): 50%
- Activity (Schistosoma mansoni [18]): Active
- Activity (Schistosoma mansoni [19]): Active
- Activity (Schistosoma mansoni [20]): inactive
- Activity (LS174T [3]): Toxic
- Activity (Schistosoma mansoni [21]): inactive
- Activity (Schistosoma mansoni [22]): 40%
- Activity (Schistosoma mansoni [23]): 90%
- Activity (HepG2 [7]): Toxic
- Activity (Schistosoma mansoni [24]): inactive
- Activity (Schistosoma mansoni [25]): 20%
- Activity (Schistosoma mansoni [26]): Active
- Activity (Schistosoma mansoni [27]): 50%
- Activity (Schistosoma mansoni [28]): Active

SMILES: CCN(CC)C(=S)SCc1cc([N+](=O)[O-])ccc1O
- Activity (Schistosoma mansoni [29]): >=90%
- Activity (Schistosoma mansoni [30]): >60%
- Activity (Schistosoma mansoni [31]): inactive
- Activity (Schistosoma mansoni [4]): inactive
- Activity (Schistosoma mansoni [5]): inactive
- Activity (Schistosoma mansoni [32]): inactive
- Activity (Schistosoma mansoni [33]): inactive
- Activity (Schistosoma mansoni [8]): >=90%
- Activity (Schistosoma mansoni [34]): Active
- Activity (Schistosoma mansoni [15]): Active

SMILES: Cl.O=C([C@@H]1CCCN1)N1CCN(C(=S)SCc2ccc([N+](=O)[O-])cc2)CC1
- Activity (Schistosoma mansoni [18]): inactive
- Activity (Schistosoma mansoni [35]): ~80%
- Activity (LS174T [3]): Toxic
- Activity (Schistosoma mansoni [36]): Active
- Activity (Schistosoma mansoni [37]): Active
- Activity (Schistosoma mansoni [5]): 65%
- Activity (Schistosoma mansoni [38]): Active
- Activity (LS174T [39]): Toxic
- Activity (Schistosoma mansoni [40]): <=25%
- Activity (Schistosoma mansoni [41]): Active
- Activity (HepG2 [7]): Toxic
- Activity (Schistosoma mansoni [9]): Active
- Activity (HepG2 [42]): Toxic
- Activity (Schistosoma mansoni [43]): ~80%

SMILES: S=C(SCc1ccccc1)n1ccc2ccccc21
- Activity (Schistosoma mansoni [44]): Active
- Activity (Schistosoma mansoni [45]): inactive
- Activity (Schistosoma mansoni [46]): Active
- Activity (LS174T [3]): Non-Toxic
- Activity (Schistosoma mansoni [47]): Active
- Activity (Schistosoma mansoni [5]): >=55%
- Activity (Schistosoma mansoni [48]): Active
- Activity (Schistosoma mansoni [49]): Active
- Activity (Schistosoma mansoni [50]): Active
- Activity (HepG2 [7]): Non-Toxic
- Activity (Schistosoma mansoni [51]): Active
